Test results: patent publication US20230287416A1, “COMBINATORY TREATMENT OF SMA WITH SARNA AND MRNA MODULATORS” (RACTIGEN THERAPEUTICS, priority 2020, published 2023)

Test system: SMN2 mRNA
Assay: RT-qPCR of SMN2FL and SMN2 Δ7 mRNA in brain, liver and spinal cord of SMA type III mice
Type: in vivo, mouse
Experimental: The combinatory effect of LNP-R6-04M1 with LNP-ASO-10-27 or with Risdiplam were in evaluated in vivo, in SMA type IU mice. Neonatal mice were divided into 10 treatment groups: • Treatment Group 1: administration of LNP-R6-04M1 via ICV injection (injected twice on P1 and P3 respectively, each with 10 ug of LNP-R6-04M1); • Treatment Group 2: administration of LNP-ASO-10-27 via ICV injection (injected twice on P1 and P3 respectively, each with 10 ug of LNP-ASO-10-27); • Treatment Group 3: administration of Risdiplam via IP injection on P1 at a concentration of 0.3 mg/kg; • Treatment Group 4: administration of Risdiplam via IP injection on P1 at a concentration of 1 mg/kg; • Treatment Group 5: administration of Risdiplam via IP injection on P1 at a concentration of 3 mg/kg; • Treatment Group 6: combinatory treatment via administration of LNP-R6-04M1 and LNP-ASO-10-27. LNP-R6-04M1 was administered via ICV injection on P1 (10 ug), while LNP-ASO-10-27 was administered via ICV injection on P3 (10 ug); • Treatment Group 7: combinatory treatment via administration of LNP-ASO-10-27 and LNP-R6-04M1. LNP-ASO-10-27 was administered via ICV injection on P1 (10 ug), while LNP-R6-04M1 was administered via ICV injection on P3 (10 ug); • Treatment Group 8: combinatory treatment of LNP-R6-04M1 and Risdiplam. LNP-R6-04M1 was injected on P1 (10 ug) via ICV injection, and Risdiplam was injected via IP injection on P3 at a concentration of 0.3 mg/kg; • Treatment Group 9: combinatory treatment of LNP-R6-04M1 and Risdiplam. LNP-R6-04M1 was injected on P1 (10 ug) via ICV injection, and Risdiplam was injected via IP injection on P3 at a concentration of 1 mg/kg;
The SMA type LII mice were treated saline twice on P1 (5 μL) and P3(5 μL) via subcutaneous (SC) injection. P1 and P3 means postnatal day 1 and day3;
Treatment Group 10: treatment of mice with saline SMN2FL and SMN2 Δ7 mRNA levels were quantified by RT-qPCR in tissues of the brain, liver and spinal cord.
For RNA isolation from cultured cells, total cellular RNA was isolated from treated cells using an RNeasy Plus Mini kit (Qiagen, Hilden, Germany) according to its manual. To isolated RNA from animal tissues, tissues were harvested and stored at RNA later (AM7021, Thermo Fisher). Total RNA was then isolated using MagPure Total RNA Micro LQ kit (Magen, R6621, China) by auto-pure96 machine (ALLSHENG, China). The resultant RNA (1 μg) was reverse transcribed into cDNA by using a PrimeScript RT kit containing gDNA Eraser (Takara, Shlga, Japan). The resultant cDNA was amplified in an ABI 7500 Fast Real-time PCR System (Applied Biosystems; Foster City, Calif.) using SYBR Premix Ex Taq 11 (Takara, Shlga, Japan) reagents and primers which specifically amplified full-length (SMN2FL) or A7 SMN2 mRNA (SMN2 Δ7) (FIG. 1). The reaction conditions were: 95° C. for 3 seconds (1 cycle) and 60° C. for 30 seconds (40 cycles). Amplification of TBP gene served as an internal control.
All animal procedures were conducted by certified laboratory personnel using protocols consistent with local and state regulations and approved by the Institutional Animal Care and Use Committee. SMA-like mice created by homozygous knock-out of mouse Smn exon 7 with transgene of human SMN2 (Smn−/−SMN2+/−) as previously described Hsieh-Li et al. (Hsieh-Li, H. M., et al. A mouse model for spinal muscular atrophy. Nature Genet (2000) were obtained from Jackson Laboratories. Tail snips were gathered at postnatal day 0 (P0), and each pup was identified by paw tattooing and genotyped by PCR analysis using a set of 3 specific primers: S1, 5′-[…]-3′, and S2, 5′-[…]-3′ (1,150 bp band for wild type alleles) and S1 and H1, 5′-[…]-3′ (950 bp band for mutant alleles). The PCR products were detected by 1% agarose gel. Severe SMA mice (Smn^−/−, SMN^+/0) were generated. Littermates heterozygous for mouse Smn (Smn1^+/−, SMN2^+/−) were used as controls. […]

[1] = brain, IP on P1, 0.3 mg/kg (Treatment Group 3)
[2] = brain, IP on P1, 1 mg/kg (Treatment Group 4)
[3] = brain, IP on P1, 3 mg/kg (Treatment Group 5)
[4] = liver, IP on P1, 0.3 mg/kg (Treatment Group 3)
[5] = liver, IP on P1, 1 mg/kg (Treatment Group 4)
[6] = liver, IP on P1, 3 mg/kg (Treatment Group 5)

## Cc1cn2nc(-c3cc(=O)n4cc(N5CCNC6(CC6)C5)ccc4n3)cc(C)c2n1 [Risdiplam]
[1]
  SMN2FL mRNA expression, fold relative to control: 1.1 fold
  SMN2 Δ7 mRNA expression, fold relative to control: 1.0 fold
[2]
  SMN2FL mRNA expression, fold relative to control: 1.3 fold
  SMN2 Δ7 mRNA expression, fold relative to control: 1.0 fold
[3]
  SMN2FL mRNA expression, fold relative to control: 1.0 fold
  SMN2 Δ7 mRNA expression, fold relative to control: 1.0 fold
[4]
  SMN2FL mRNA expression, fold relative to control: 1.1 fold
  SMN2 Δ7 mRNA expression, fold relative to control: 1.0 fold
[5]
  SMN2FL mRNA expression, fold relative to control: 1.5 fold
  SMN2 Δ7 mRNA expression, fold relative to control: 0.9 fold
[6]
  SMN2FL mRNA expression, fold relative to control: 1.0 fold
  SMN2 Δ7 mRNA expression, fold relative to control: 1.0 fold
